Nine compounds from ChEMBL document CHEMBL1132864, “Anti-AIDS agents part 41: synthesis and anti-HIV activity of 3',4'-di-o-(-)-camphanoyl-(+)-cis-khellactone (DCK) lactam analogues” (Bioorg Med Chem Lett, 2000) can be followed below.

A short description of data set [1]: Therapeutic index for inhibition of uninfected H9 cell growth to that of inhibition of HIV-1 replication in H9 lymphocyte cells. The format is cell-based. Particulars: human, H9 lymphocyte cells (uninfected and HIV-1 infected); read-out: TI; call rule not given here.
Data set [2] deals with H9. In words: Concentration required to inhibit HIV-1 replication in H9 lymphocyte cells. The format is functional, cell-based. As to conditions: Homo sapiens.
Data set [3] has as its system H9. As to the kind of experiment: Concentration required to inhibit uninfected H9 cell growth. The format is functional, cell-based. Particulars: Homo sapiens.
Data set [4] is described as follows: Therapeutic index for inhibition of uninfected H9 cell growth to that of inhibition of HIV-1 replication in H9 lymphocyte cells; […]. Particulars: human. The data set is classed as cell-based.
Data set [5] is described as follows: Therapeutic index for inhibition of uninfected H9 cell growth to that of inhibition of HIV-1 replication in H9 lymphocyte cells; Precipitated in the media. The data set is classed as cell-based. Particulars: human.
Data set [6] is described as follows: Therapeutic index for inhibition of uninfected H9 cell growth to that of inhibition of HIV-1 replication in H9 lymphocyte cells;Did not dissolve. The data set is classed as cell-based. Particulars: human.

As for `Cc1cc(O)nc2c3c(ccc12)OC(C)(C)[C@H](OC(=O)C12CCC(C)(C(=O)O1)C2(C)C)[C@@H]3OC(=O)C12CCC(C)(C(=O)O1)C2(C)C` (stereo partly specified), the selectivity ratio in data set [1] was 119000. This compound yielded an EC50 with H9 [2] of 0.00024 µM. Besides, half-maximal inhibition in the data set on H9 [3] (IC50) was put at 28 µM. Regarding `Cc1cc(=O)n(C(=O)OC(C)(C)C)c2c3c(ccc12)OC(C)(C)[C@H](OC(=O)C12CCC(C)(C(=O)O1)C2(C)C)[C@@H]3OC(=O)C12CCC(C)(C(=O)O1)C2(C)C` (stereo partly specified), in the data set on H9 [3], the 50% inhibitory concentration (IC50) was above 157 µM. The TI result in data set [4] was “Not Active”.

Regarding `Cc1cc(=O)n(C(=O)OC(C)(C)C)c2c3c(ccc12)OC(C)(C)C=C3`, the TI result in data set [5] is recorded as “Precipitated”.

Compound `Cc1cc(O)nc2cc(N)ccc12` yielded a concentration for half-maximal inhibition (IC50) in the data set on H9 [3] of 104 µM. In data set [4], the TI entry is “Not Active”.

Turning to `Cc1cc(=O)n(C(=O)OC(C)(C)C)c2c3c(ccc12)OC(C)(C)[C@H](O)[C@@H]3O`, the TI result in data set [5] is recorded as “Precipitated”.

For `CC1(C)Oc2ccc3ccc(=O)oc3c2[C@@H](OC(=O)C23CCC(C)(C(=O)O2)C3(C)C)[C@H]1OC(=O)C12CCC(C)(C(=O)O1)C2(C)C` (stereo partly specified), the selectivity ratio in data set [1] amounted to 137000.

With `Cc1cc(O)nc2cc(O)ccc12`, in the data set on H9 [3], it took 125 µM to reach half-maximal inhibition (IC50). Also, the TI entry in data set [4] is “Not Active”.

Consider `Cc1c(O)nc2c3c(ccc2c1C)OC(C)(C)[C@H](OC(=O)C12CCC(C)(C(=O)O1)C2(C)C)[C@@H]3OC(=O)C12CCC(C)(C(=O)O1)C2(C)C` (stereo partly specified), for which the selectivity ratio in data set [1] amounted to 9100. Also, in the data set with H9 [2], the midpoint of the response, the EC50, lay at 0.0046 µM. The concentration for half-maximal inhibition (IC50) in the data set with H9 [3] amounted to 42 µM. For the compound `Cc1cc(O)nc2c3c(ccc12)OC(C)(C)C=C3`, the TI entry in data set [6] is listed as “Did not dissolve”.

The EC50 is the concentration needed to bring the measured effect to its halfway point. High values mean a need for much substance, low ones an effect from little substance. For orientation: IC50 means the point on the concentration scale where inhibition reaches its midpoint. A higher IC50 goes with a need for much substance.
